The values that follow come from patent publication US20250090510A1, “eIF4G1-eIF1 INHIBITORS AND USE THEREOF” (YEDA RESEARCH AND DEVELOPMENT CO. LTD., priority 2022, published 2025).

In one test the target is T1, eIF1-eIF4G1 complex (Homo sapiens, UniProt Q04637).
T1 construct: co-immunoprecipitation of endogenous eIF4G1 in HEK293T cells expressing HA-eIF1 or HA-eIF4E was performed; endogenous in cells; host or cells: HEK293T (eIF4G1 endogenous; HA-eIF1 transfected)
As to the kind of experiment: Co-immunoprecipitation of endogenous eIF4G1 with HA-eIF1. The class given is cell-based. The following applies: HEK293T; i14G1-10 20 μM, i14G1-12 10 μM; 4 h. How it is done: (§1) FIGS. 2A-C: The effect of i14G1-10 and i14G1-12 on eIF1-eIF4G1 and eIF4E-eIF4G1 complexes. (2A-B) HA-eIF1 and HA-eIF4E were each transfected into HEK293T cells and 48 h after transfection cells were treated with DMSO or i14G1-10 (2A) or i14G1-12 (2B) for 4 h, followed by immunoprecipitation of HA-eIF1 or HA-eIF4E using anti-HA-agarose beads. Western blot was run to check co-immunoprecipitation of endogenous eIF4G1 with HA-eIF1 or HA-eIF4E. The graphs represent the co-immunoprecipitation of eIF4G1 with HA-eIF1 (right) or HA-eIF4E (left). Co—IP data shown as mean±SEM of 4-7 independent experiments. The asterisks denote statistically significant difference compared to DMSO, according to Student's t-tests (one-tailed, paired). *p<0.05. (2C) HEK293T cells were treated with DMSO, i14G1-10, or i14G1-12 for 4 h, followed by cell lysis. Respective cell lysates were incubated with cap analog (γ-Aminohexyl-m7GTP) beads for 2 h to precipitate bound eIF4E. Western blot was performed to check co-precipitation of eIF4G1 along with eIF4E on the cap-analog beads. The graph represents the binding fraction of eIF4G1 and eIF4E to the cap-analog beads (mean±SEM) with DMSO (black), i14G1-10 (blue), and i14G1-12 (red), n=6. The asterisks denote statistically significant difference compared to DMSO, according to Student's t-tests (one-tailed, paired). *p<0.05; **p<0.01.
(§2) Co-immunoprecipitation. HEK293T cells were transfected with 5 μg of HA-eIF1 or HA-eIF4E plasmids along with 10 ng GFP plasmid to check for transfection efficiency using Jetprime reagent as per manufacturer's protocol. After 48 h, HA-eIF1 and HA-eIF4E expressing HEK293T cells were incubated with DMSO, i14G1-10 (20 μM), and […] (10 μM). 4 h later, cells were lysed using IP buffer (20 mM Tris pH8, 125 mM NaCl, 10% glycerol, 50 mM NaF, 1 mM […], 0.5% NP-40, and 0.2 mM EDTA) supplemented with fresh protease inhibitor cocktail (1:100) and PMSF 200 μM (1:100). Protein extract was taken for immunoprecipitation using either monoclonal anti-HA-agarose antibody (Sigma) or control IgG antibody in IP buffer, at 4° C. for 2 hours. […]

Another test has as its target T2, eIF4E-eIF4G1 complex (Homo sapiens, UniProt Q04637).
T2 construct: co-immunoprecipitation of endogenous eIF4G1 in HEK293T cells expressing HA-eIF1 or HA-eIF4E was performed; endogenous in cells; host or cells: HEK293T (eIF4G1 endogenous; HA-eIF4E transfected)
Briefly: Co-immunoprecipitation of endogenous eIF4G1 with HA-eIF4E. The class given is cell-based. To be noted: HEK293T; i14G1-10 20 μM, i14G1-12 10 μM; 4 h. As for the experimental part:
as §1, §2

In test [1] the test system is Plasmodium falciparum NF54 strain. Briefly: Parasitemia assay in blood cultures. The class given is cell-based. The following applies: i14G1-10 20 uM, i14G1-12 10 uM; 1 hour, wash, measured 24 hours later. How it is done:
(§3) FIGS. 8A-B: (8A) Bar graph of percent parasitemia in blood samples treated with i14G1-10 (20 μM) and i14G1-12 (10 μM) for 1 hour. DMSO treatment was used as a negative control. *=pVal; <0.05, ***=pVal<0.001 (8B) Photograph of a western blot and corresponding gel total protein staining of P. falciparum blood cultures treated with the inhibitors with or without the addition of puromycin. DMSO treatment and untreated cultures were used as a negative control.
From the same flask with -3-4% parasitemia, parasites were plated at 5 ml/well into six well-plates. To the trophozoite stage of development, i14G1-10, i14G1-12, or DMSO, were added and incubated at 37° C. with shaking. After one hour of incubation, from each sample, 1 ml of culture was taken. […]
The next day, the parasitemia (the number of iRBCs divided by the number of total RBCs) was measured by microscopy. The gold-standard method for identifying and quantifying malaria parasites as disclosed in Murphy et al., 2013, “Malaria diagnostics in clinical trials.” Am J Trop Med Hyg., 89(5):824-39, herein incorporated by reference in its entirety, was used. […] Infected RBCs were quantified by eye. No less than 30 fields of view were counted to find the final parasitemia percent.
Parasitaemia levels were measured 24 hours later.

Test [2] deals with P. falciparum translation. As to the kind of experiment: Puromycin incorporation western blot in P. falciparum blood cultures. To be noted: i14G1-10 20 uM, i14G1-12 10 uM; 1 hour, puromycin 5 minutes. It counts as cell-based, Plasmodium falciparum. How it is done: as §3
Next, the method of action that caused the growth/survival inhibition was tested. […] Puromycin labels newly synthesized proteins and cell lysates were analysed by western blot with anti-puromycin antibody (FIG. 8B).
For orientation: In western blotting, separated proteins are transferred to a membrane and probed.

T1 sequence (Q04637 whole entry, one chain of several): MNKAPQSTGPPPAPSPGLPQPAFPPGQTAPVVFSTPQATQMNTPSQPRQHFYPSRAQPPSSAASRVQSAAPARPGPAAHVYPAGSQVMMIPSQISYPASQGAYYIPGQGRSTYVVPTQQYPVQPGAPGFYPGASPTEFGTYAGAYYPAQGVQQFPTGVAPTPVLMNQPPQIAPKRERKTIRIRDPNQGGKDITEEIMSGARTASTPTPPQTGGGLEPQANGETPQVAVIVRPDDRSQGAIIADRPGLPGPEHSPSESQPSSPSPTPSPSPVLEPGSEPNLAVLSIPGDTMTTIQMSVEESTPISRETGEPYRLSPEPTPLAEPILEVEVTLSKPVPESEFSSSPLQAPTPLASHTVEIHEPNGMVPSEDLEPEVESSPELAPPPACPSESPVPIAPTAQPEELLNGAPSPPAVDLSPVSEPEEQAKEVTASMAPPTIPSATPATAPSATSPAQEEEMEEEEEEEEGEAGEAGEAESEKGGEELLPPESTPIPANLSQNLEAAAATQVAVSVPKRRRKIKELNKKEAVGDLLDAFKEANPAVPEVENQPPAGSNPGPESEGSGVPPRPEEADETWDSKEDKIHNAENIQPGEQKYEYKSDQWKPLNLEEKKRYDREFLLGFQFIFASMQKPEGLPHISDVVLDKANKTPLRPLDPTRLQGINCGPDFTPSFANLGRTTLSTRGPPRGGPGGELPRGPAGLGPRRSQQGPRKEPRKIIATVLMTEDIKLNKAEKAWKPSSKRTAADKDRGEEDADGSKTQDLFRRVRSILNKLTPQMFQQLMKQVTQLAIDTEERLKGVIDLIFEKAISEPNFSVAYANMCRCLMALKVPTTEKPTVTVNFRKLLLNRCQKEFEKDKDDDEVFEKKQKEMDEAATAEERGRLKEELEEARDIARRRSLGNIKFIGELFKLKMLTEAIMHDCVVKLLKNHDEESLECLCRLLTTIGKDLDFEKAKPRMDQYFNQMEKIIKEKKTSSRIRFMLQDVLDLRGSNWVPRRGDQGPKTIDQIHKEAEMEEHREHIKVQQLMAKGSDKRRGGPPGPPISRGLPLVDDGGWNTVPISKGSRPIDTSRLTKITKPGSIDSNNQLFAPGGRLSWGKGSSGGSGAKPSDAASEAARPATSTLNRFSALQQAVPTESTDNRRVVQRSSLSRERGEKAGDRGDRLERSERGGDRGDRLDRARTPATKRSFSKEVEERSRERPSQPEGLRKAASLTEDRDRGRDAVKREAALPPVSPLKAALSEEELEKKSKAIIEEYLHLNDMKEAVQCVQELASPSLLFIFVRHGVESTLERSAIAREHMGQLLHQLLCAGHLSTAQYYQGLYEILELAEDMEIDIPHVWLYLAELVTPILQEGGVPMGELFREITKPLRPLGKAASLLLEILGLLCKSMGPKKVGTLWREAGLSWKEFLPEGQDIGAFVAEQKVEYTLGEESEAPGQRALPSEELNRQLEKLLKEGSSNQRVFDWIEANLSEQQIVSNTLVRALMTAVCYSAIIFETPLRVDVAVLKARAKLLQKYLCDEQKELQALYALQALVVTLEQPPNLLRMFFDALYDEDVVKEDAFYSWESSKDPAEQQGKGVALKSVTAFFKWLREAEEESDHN
T2 sequence (Q04637 whole entry): as the sequence (Q04637 whole entry, one chain of several) above
T2 sequence (P06730 whole entry partner): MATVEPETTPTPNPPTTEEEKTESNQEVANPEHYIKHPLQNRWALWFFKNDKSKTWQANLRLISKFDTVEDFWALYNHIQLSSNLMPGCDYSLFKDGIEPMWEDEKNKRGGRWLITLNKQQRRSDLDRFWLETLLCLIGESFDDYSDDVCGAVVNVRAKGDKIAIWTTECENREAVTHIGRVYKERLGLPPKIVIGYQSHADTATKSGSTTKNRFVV

With `Cn1ccnc1S/C(=C/C=C(C#N)C#N)c1ccc(Cl)cc1` [i14G1-12], at eIF1-eIF4G1 complex, the “reduction in eIF4G1 binding to HA-eIF1” value was 25%. In addition, the “enhancement of eIF4G1 binding to HA-eIF4E” value at eIF4E-eIF4G1 complex was “not significant”. Further, in test [1], the “reduction of parasite levels (parasitaemia)” value is given as 69%. Further, in test [2], the “protein synthesis (puromycin incorporation)” value is “inhibited protein synthesis”.
The matching figures for `O=C(/C=C/Sc1ccc(C(F)(F)F)cn1)c1ccccc1` [i14G1-10]: 50%, “dramatic enhancement”, 42% and “inhibited protein synthesis”.
